# Measured values published in patent publication US7365202B2, “Polymorphs of an androgen receptor modulator” (Merck & Co., Inc., priority 2005, dated 2008).
# Columns and labels:
# [1] = tested on: human AR in MDA-MB-453 cells; assay: Trans-Activation Modulation of Androgen Receptor (TAMAR), MMTV-LUC reporter; format: cell-based
# Method: Trans-Activation Modulation of Androgen Receptor (TAMAR)
# This assay assesses the ability of test compounds to control transcription from the MMTV-LUC reporter gene in MDA-MB-453 cells, a human breast cancer cell line that naturally expresses the human AR. The assay measures induction of a modified MMTV LTR/promoter linked to the LUC reporter gene.
# 20,000 to 30,000 cells/well are plated in a white, clear-bottom 96-well plate in “Exponential Growth Medium” which consists of phenol red-free RPMI 1640 containing 10%FBS, 4 mM L-glutamine, 20 mM HEPES, 10 ug/mL human insulin, and 20 ug/mL gentamicin. Incubator conditions are 37° C. and 5% CO2. The transfection is done in batch mode. The cells are trypsinized and counted to the right cell number in the proper amount of fresh media, and then gently mixed with the Fugene/DNA cocktail mix and plated onto the 96-well plate. All the wells receive 200 TI of medium+lipid/DNA complex and are then incubated at 37° C. overnight. The transfection cocktail consists of serum-free Optimem, Fugene6 reagent and DNA. The manufacturer's (Roche Biochemical) protocol for cocktail setup is followed. The lipid (Tl) to DNA (Tg) ratio is approximately 3:2 and the incubation time is 20 minutes at room temperature. Sixteen to 24 hrs after transfection, the cells are treated with test compounds such that the final DMSO (vehicle) concentration is <3%. […]
# [2] = target: T1, rhAR NTD/CTD interaction in CV-1 monkey kidney cells (Macaca mulatta, UniProt Q6QT55); assay: Mammalian two-hybrid assay for ligand-induced interaction of N-terminus and C-terminus domains of the androgen receptor (agonist mode: VIRCON); format: cell-based; settings: at 10 micromolar; read-out: agonist activity (Emax relative to the activity obtained with 3 nM R1881)
# T1 construct: pCBB1 (Gal4DBD-rhARLBD fusion construct expressed under the SV40 early promoter); expressed in transfected cells; host or cells: CV-1 monkey kidney cells
# T1 sequence (Q6QT55 644-895): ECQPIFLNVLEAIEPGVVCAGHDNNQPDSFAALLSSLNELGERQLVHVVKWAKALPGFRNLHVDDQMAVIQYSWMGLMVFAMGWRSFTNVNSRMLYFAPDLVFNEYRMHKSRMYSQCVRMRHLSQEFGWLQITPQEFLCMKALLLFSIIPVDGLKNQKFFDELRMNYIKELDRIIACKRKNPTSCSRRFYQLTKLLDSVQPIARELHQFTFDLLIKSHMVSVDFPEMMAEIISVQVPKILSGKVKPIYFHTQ
# Source text: Mammalian Two-Hybrid Assay for the Ligand-Induced Interaction of N-Terminus and C-Terminus Domains of the Androgen Receptor (Agonist Mode: VIRCON)
# This assay assesses the ability of AR agonists to induce the interaction between the N-terminal domain (NTD) and C-terminal domain (CTD) of rhAR that reflects the in vivo virilizing potential mediated by activated androgen receptors. The interaction of NTD and CTD of rhAR is quantified as ligand induced association between a Gal4DBD-rhARCTD fusion protein and a VP16-rhARNTD fusion protein as a mammalian two-hybrid assay in CV-1 monkey kidney cells.
# The day before transfection, CV-1 cells are trypsinized and counted, and then plated at 20,000 cells/well in 96-well plates or larger plates (scaled up accordingly) in DMEM+10% FCS. […]
# For each well, 0.4 μL LIPOFECTAMINE Reagent (GIBCO-BRL) is diluted into 4.6 μL OPTI-MEM in a second tube and mixed to form the diluted LIPOFECTAMINE Reagent. […] Forty eight hours later, luciferase activity is measured using LUC-Screen system (TROPIX) following the manufacturer's protocol. […] After incubation for 40 minutes at room temperature, luminescence is directly measured with 2-5 second integration. […]
# [3] = Source text: The weight increase was based on the initial total sample weight at 25% RH.
SMILES,partial agonist activity (Emax relative to the activity obtained with 100 nM R1881) [1],Emax at 10 µM [2] [%],"loss of total weight ([3]; 25° C., relative humidity decreases from 95% to 5% RH)",moisture uptake (weight increase based on initial total sample weight at 25% RH) ([3]; from about 25% to about 95% RH at 25° C.)
"CN1C(=O)C(F)=C[C@]2(C)C3CC[C@]4(C)[C@@H](C(=O)NCc5nc6cccnc6[nH]5)CC[C@H]4C3CC[C@@H]12 (stereo partly drawn) [compound of formula I, N-(3H-imidazo[4,5-b]pyridin-2-ylmethyl)-2-fluoro-4-methyl-3-oxo-4-aza-5-alpha-androst-1-en-17-beta-carboxamide]",greater than 10%,< 50,–,–
"CN1C(=O)C(F)=C[C@]2(C)[C@H]3CC[C@]4(C)[C@@H](C(=O)NCc5nc6ncccc6[nH]5)CC[C@H]4[C@@H]3CC[C@@H]12 [Form B, N-(3H-imidazo[4,5-b]pyridin-2-ylmethyl)-2-fluoro-4-methyl-3-oxo-4-aza-5α-androst-1-en-17β-carboxamide]",–,–,about 8%,about 7%
